Assay results as given in article PMC3349777 (2012).

Key:
[1] = target: Trypanosoma cruzi squalene synthase (TcSQS) (Trypanosoma cruzi, UniProt Q4CWB4); experiment: enzyme inhibition assay, recombinant SQS; format: biochemical
[2] = target: T1, human squalene synthase (HsSQS) (Homo sapiens, UniProt P37268); experiment: enzyme inhibition assay, recombinant SQS; format: biochemical
T1 sequence (P37268 1-417): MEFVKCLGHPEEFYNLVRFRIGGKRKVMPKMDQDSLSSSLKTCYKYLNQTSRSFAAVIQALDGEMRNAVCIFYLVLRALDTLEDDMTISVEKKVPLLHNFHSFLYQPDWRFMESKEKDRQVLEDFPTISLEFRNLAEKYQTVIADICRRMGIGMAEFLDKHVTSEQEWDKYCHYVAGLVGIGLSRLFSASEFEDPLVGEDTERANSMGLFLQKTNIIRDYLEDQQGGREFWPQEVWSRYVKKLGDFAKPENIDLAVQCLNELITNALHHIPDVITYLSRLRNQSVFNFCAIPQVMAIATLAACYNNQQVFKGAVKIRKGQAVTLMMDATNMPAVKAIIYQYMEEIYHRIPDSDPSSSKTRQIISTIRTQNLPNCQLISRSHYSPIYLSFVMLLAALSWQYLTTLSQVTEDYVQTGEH

CC(C)=CCC/C(C)=C\CNCCNC1C2CC3CC(C2)CC1C3 (centres unmarked) [compound 3, SQ-109]
Ki [1]: 1.2 µM | Ki [2]: 0.74 µM
